Measured values from patent publication US20180251431A1 (VERTEX PHARMACEUTICALS INCORPORATED, priority 2016, published 2018).

What follows are molecules tested on HEK293 cells (assay: HEK293 VLCFA-LPC IC50 determination (13C-labeled C26:0 LPC by UHPLC/MS)). Conditions: Homo sapiens, HEK293, HEK293 cells; average of one or more replicates; read-out: Average HEK293 IC50.
Format: cell-based, human
Outline: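 Suspension HEK293 cells (final 0.5 million/mL after mixing with equal volume) incubated 48 hours with compound plus 13C-acetate (1.0 mg/mL in added media), shaking at 37° C. Lipids extracted with hexane/isopropanol or methanol, C13:0 LPC standard. UHPLC/MS of 13C-labeled C26:0 LPC (638.500/104.100 m/z); IC50 by four-parameter fit.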

| Compound | IC50 [nM] |
| --- | --- |
| O=C(Nc1ccn(-c2cncnc2)n1)C1(c2ccccc2F)CC1 [Compound 85, 1-(2-fluorophenyl)-N-(1-pyrimidin-5-ylpyrazol-3-yl)cyclopropanecarboxamide] | 95 |
| O=C(Cc1ccccc1)Nc1ccn(-c2ccccn2)n1 [Compound 86, 2-phenyl-N-[1-(2-pyridyl)pyrazol-3-yl]acetamide] | 680 |
| O=C(Cc1ccc(F)cc1)Nc1ccn(-c2ncccc2F)n1 [Compound 88, 2-(4-fluorophenyl)-N-[1-(3-fluoro-2-pyridyl)pyrazol-3-yl]acetamide] | > 5000 |
| O=C(Cc1ccccc1)Nc1ccn(-c2nccs2)n1 [Compound 89, 2-phenyl-N-(1-thiazol-2-ylpyrazol-3-yl)acetamide] | 340 |
| O=C(Cc1ccccc1F)Nc1ccn(-c2nccs2)n1 [Compound 90, 2-(2-fluorophenyl)-N-(1-thiazol-2-ylpyrazol-3-yl)acetamide] | 350 |
| O=C(Cc1ccc(F)cc1)Nc1ccn(-c2nccs2)n1 [Compound 91, 2-(4-fluorophenyl)-N-(1-thiazol-2-ylpyrazol-3-yl)acetamide] | 1900 |
| O=C(Nc1ccn(-c2nccs2)n1)C1(c2ccccc2F)CC1 [Compound 92, 1-(2-fluorophenyl)-N-(1-thiazol-2-ylpyrazol-3-yl)cyclopropanecarboxamide] | 38 |
| O=C(Cc1ccccc1)Nc1ccn(-c2ncccc2F)n1 [Compound 93, N-[1-(3-fluoro-2-pyridyl)pyrazol-3-yl]-2-phenyl-acetamide] | > 10000 |
| O=C(Cc1ccccc1F)Nc1ccn(-c2ncccc2F)n1 [Compound 94, 2-(2-fluorophenyl)-N-[1-(3-fluoro-2-pyridyl)pyrazol-3-yl]acetamide] | > 10000 |
| O=C(Nc1ccn(-c2ncccc2F)n1)C1(c2ccccc2F)CC1 [Compound 95, 1-(2-fluorophenyl)-N-[1-(3-fluoro-2-pyridyl)pyrazol-3-yl]cyclopropanecarboxamide] | 390 |
| O=C(Cc1ccccc1)Nc1ccn(-c2cncnc2)n1 [Compound 96, 2-phenyl-N-(1-pyrimidin-5-ylpyrazol-3-yl)acetamide] | 2400 |
| O=C(Cc1ccc(F)cc1)Nc1ccn(-c2cncnc2)n1 [Compound 97, 2-(4-fluorophenyl)-N-(1-pyrimidin-5-ylpyrazol-3-yl)acetamide] | > 10000 |
| O=C(Nc1ccn(-c2cncnc2)n1)C1(c2ccccc2)CC1 [Compound 98, 1-phenyl-N-(1-pyrimidin-5-ylpyrazol-3-yl)cyclopropanecarboxamide] | 110 |
| O=C(Cc1ccccc1)Nc1ccn(-c2ccncc2)n1 [Compound 99, 2-phenyl-N-[1-(4-pyridyl)pyrazol-3-yl]acetamide] | 760 |
| O=C(Nc1ccn(-c2ccncc2)n1)C1(c2ccccc2)CC1 [Compound 100, 1-phenyl-N-[1-(4-pyridyl)pyrazol-3-yl]cyclopropanecarboxamide] | 33 |
| O=C(Nc1ccn(-c2ccncc2)n1)C1(c2ccccc2F)CC1 [Compound 101, 1-(2-fluorophenyl)-N-[1-(4-pyridyl)pyrazol-3-yl]cyclopropanecarboxamide] | 75 |
| O=C(Cc1ccc(F)cc1)Nc1ccn(-c2ccncc2)n1 [Compound 102, 2-(4-fluorophenyl)-N-[1-(4-pyridyl)pyrazol-3-y]+acetamide] | 3600 |
| O=C(Cc1ccccc1)Nc1ccn(-c2ccc(Cl)nc2)n1 [Compound 103, N-[1-(6-chloro-3-pyridyl)pyrazol-3-yl]-2-phenyl-acetamide] | 580 |
| O=C(Cc1ccccc1F)Nc1ccn(-c2ccc(Cl)nc2)n1 [Compound 104, N-[1-(6-chloro-3-pyridyl)pyrazol-3-yl]-2-(2-fluorophenyl)acetamide] | 320 |
| O=C(Cc1ccc(F)cc1)Nc1ccn(-c2ccc(Cl)nc2)n1 [Compound 105, N-[1-(6-chloro-3-pyridyl)pyrazol-3-yl]-2-(4-fluorophenyl)acetamide] | > 5000 |
| O=C(Nc1ccn(-c2ccc(Cl)nc2)n1)C1(c2ccccc2)CC1 [Compound 106, N-[1-(6-chloro-3-pyridyl)pyrazol-3-yl]-1-phenyl-cyclopropanecarboxamide] | 250 |
| O=C(Nc1ccn(-c2ccc(Cl)nc2)n1)C1(c2ccccc2F)CC1 [Compound 107, N-[1-(6-chloro-3-pyridyl)pyrazol-3-yl]-1-(2-fluorophenyl)cyclopropanecarboxamide] | 84 |
| Cc1cc(-n2ccc(NC(=O)C3(c4ccc(F)cc4)CC3)n2)ccn1 [Compound 108, 1-(4-fluorophenyl)-N-[1-(2-methyl-4-pyridyl)pyrazol-3-yl]cyclopropanecarboxamide] | 770 |
| Cc1cc(-n2ccc(NC(=O)Cc3ccccc3)n2)ccn1 [Compound 109, N-[1-(2-methyl-4-pyridyl)pyrazol-3-yl]-2-phenyl-acetamide] | > 10000 |

| Compound | IC50 [nM] |
| --- | --- |
| Cc1cc(-n2ccc(NC(=O)Cc3ccccc3F)n2)ccn1 [Compound 110, 2-(2-fluorophenyl)-N-[1-(2-methyl-4-pyridyl)pyrazol-3-yl]acetamide] | > 10000 |
| Cc1cc(-n2ccc(NC(=O)Cc3ccc(F)cc3)n2)ccn1 [Compound 111, 2-(4-fluorophenyl)-N-[1-(2-methyl-4-pyridyl)pyrazol-3-yl]acetamide] | > 10000 |
| Cc1cc(-n2ccc(NC(=O)C3(c4ccccc4)CC3)n2)ccn1 [Compound 112, N-[1-(2-methyl-4-pyridyl)pyrazol-3-yl]-1-phenyl-cyclopropanecarboxamide] | 910 |
| Cc1cc(-n2ccc(NC(=O)C3(c4ccccc4F)CC3)n2)ccn1 [Compound 113, 1-(2-fluorophenyl)-N-[1-(2-methyl-4-pyridyl)pyrazol-3-yl]cyclopropanecarboxamide] | 1600 |
| O=C(Cc1ccccc1)Nc1ccn(-c2cc(F)ncc2F)n1 [Compound 114, N-[1-(2,5-difluoro-4-pyridyl)pyrazol-3-yl]-2-phenyl-acetamide] | 1200 |
| O=C(Nc1ccn(-c2cc(F)ncc2F)n1)C1(c2ccccc2)CC1 [Compound 115, N-[1-(2,5-difluoro-4-pyridyl)pyrazol-3-yl]-1-phenyl-cyclopropanecarboxamide] | 120 |
| O=C(Nc1ccn(-c2cc(F)ncc2F)n1)C1(c2ccccc2F)CC1 [Compound 116, N-[1-(2,5-difluoro-4-pyridyl)pyrazol-3-yl]-1-(2-fluorophenyl)cyclopropanecarboxamide] | 76 |
| Cc1ccc(-n2ccc(NC(=O)Cc3ccccc3)n2)cn1 [Compound 117, N-[1-(6-methyl-3-pyridyl)pyrazol-3-yl]-2-phenyl-acetamide] | > 5000 |
| Cc1ccc(-n2ccc(NC(=O)C3(c4ccccc4)CC3)n2)cn1 [Compound 118, N-(1-(6-methylpyridin-3-yl)-1H-pyrazol-3-yl)-1-phenylcyclopropane-1-carboxamide] | 1300 |
| Cc1ccc(-n2ccc(NC(=O)Cc3ccccc3F)n2)cn1 [Compound 119, 2-(2-fluorophenyl)-N-[1-(6-methyl-3-pyridyl)pyrazol-3-yl]acetamide] | 3500 |
| Cc1ccc(-n2ccc(NC(=O)C3(c4ccccc4F)CC3)n2)cn1 [Compound 120, 1-(2-fluorophenyl)-N-[1-(6-methyl-3-pyridyl)pyrazol-3-yl]cyclopropanecarboxamide] | 620 |
| O=C(Cc1ccccc1)Nc1ccn(-c2cccc(Cl)c2)n1 [Compound 121, N-[1-(3-chlorophenyl)pyrazol-3-yl]-2-phenyl-acetamide] | 650 |
| O=C(Cc1ccccc1F)Nc1ccn(-c2ccnc(C(F)(F)F)c2)n1 [Compound 122, 2-(2-fluorophenyl)-N-[1-[2-(trifluoromethyl)-4-pyridyl]pyrazol-3-yl]acetamide] | 1600 |
| O=C(Cc1ccccc1)Nc1ccn(-c2ccnc(C(F)(F)F)c2)n1 [Compound 123, 2-phenyl-N-[1-[2-(trifluoromethyl)-4-pyridyl]pyrazol-3-yl]acetamide] | 1500 |
| O=C(Nc1ccn(-c2cccc(F)c2)n1)C1(c2ccccc2F)CC1 [Compound 124, 1-(2-fluorophenyl)-N-[1-(3-fluorophenyl)pyrazol-3-yl]cyclopropanecarboxamide] | 41 |
| O=C(Nc1ccn(-c2cccc(F)c2)n1)C1(c2ccccc2)CC1 [Compound 125, N-[1-(3-fluorophenyl)pyrazol-3-yl]-1-phenyl-cyclopropanecarboxamide] | 71 |
| O=C(Cc1ccccc1F)Nc1ccn(-c2cccc(F)c2)n1 [Compound 126, 2-(2-fluorophenyl)-N-[1-(3-fluorophenyl)pyrazol-3-yl]acetamide] | 500 |
| O=C(Cc1ccccc1)Nc1ccn(-c2cccc(F)c2)n1 [Compound 127, N-[1-(3-fluorophenyl)pyrazol-3-yl]-2-phenyl-acetamide] | 810 |
| O=C(Nc1ccn(-c2cccc(Cl)c2)n1)C1(c2ccccc2F)CC1 [Compound 128, N-[1-(3-chlorophenyl)pyrazol-3-yl]-1-(2-fluorophenyl)cyclopropanecarboxamide] | 230 |
| O=C(Nc1ccn(-c2cccc(Cl)c2)n1)C1(c2ccccc2)CC1 [Compound 129, N-[1-(3-chlorophenyl)pyrazol-3-yl]-1-phenyl-cyclopropanecarboxamide] | 700 |
| O=C(Cc1ccccc1F)Nc1ccn(-c2cccc(Cl)c2)n1 [Compound 130, N-[1-(3-chlorophenyl)pyrazol-3-yl]-2-(2-fluorophenyl)acetamide] | 1500 |
| O=C(Nc1ccn(-c2ccc(Cl)cc2)n1)C1(c2ccccc2F)CC1 [Compound 131, N-[1-(4-chlorophenyl)pyrazol-3-yl]-1-(2-fluorophenyl)cyclopropanecarboxamide] | 480 |
| O=C(Nc1ccn(-c2ccc(Cl)cc2)n1)C1(c2ccccc2)CC1 [Compound 132, N-[1-(4-chlorophenyl)pyrazol-3-yl]-1-phenyl-cyclopropanecarboxamide] | > 5000 |
| O=C(Cc1ccccc1F)Nc1ccn(-c2ccc(Cl)cc2)n1 [Compound 133, N-[1-(4-chlorophenyl)pyrazol-3-yl]-2-(2-fluorophenyl)acetamide] | > 5000 |
